Assay results as given in ChEMBL document CHEMBL3507680, “University of Dundee, Gates Library screen for HepG2 cell viability”.

Assay: Human HepG2 cell viability assay in 384 well format
Format: toxicity, cell-based
Parameters: dose 125 nL, time 70.5 hour; cytotoxicity at 70.5 h: concentration not given beside the values
Conditions: HepG2 cells, read-out: Inhibition

| SMILES | cytotoxicity at 70.5 h [%] |
| --- | --- |
| Cc1cncc(C2CCN(Cc3ccsc3)CC2)n1 | 4.8 |
| CNC(=O)C1CN(C(=O)c2cccnc2)CCN(S(C)(=O)=O)C1 (centres undefined) | -4.31 |
| Cc1nccc(N(C)Cc2ncc(-c3ccccc3C(=O)O)s2)n1 | -1.97 |
| CS(=O)(=O)N1CCC(c2cnc(-c3cn[nH]c3)cn2)CC1 | 0.854 |
| CNC(=O)C1CN(C)CCN(C(=O)CCn2nnc3ccccc32)C1 (centres undefined) | 0.266 |
| Cn1ccc(C(=O)N2CCc3[nH]nc(Nc4ccccc4)c3C2)n1 | 1.75 |
| CNC(=O)C1CN(C(=O)c2cccs2)CCN(S(C)(=O)=O)C1 (centres undefined) | -2.89 |
| CC(=O)N1CCOCC(Cc2ccc3c(ccn3C(C)=O)c2)C1 (centres undefined) | -2.4 |
| c1cncc(CN2CCCCC2c2ccc(Nc3cnccn3)nc2)c1 (centres undefined) | -5.32 |
| O=C(Cc1cccnc1)N1CCC(c2nnc(-c3ccccn3)o2)CC1 | 25.5 |
| CNC(=O)C1CN(C(=O)c2ccccc2)Cc2cn(C)nc21 (centres undefined) | 26.9 |
| COc1cc(CCC(=O)N2CCC(c3cc4nccnc4[nH]3)CC2)on1 | 28.5 |
| Cc1nn(C)cc1CN1CCN(CC2(c3ccccc3)CC2)CC1 | -1.67 |
| CC(=O)N1C[C@H](c2cc(O)nc(C)n2)[C@@H](c2ccccc2F)C1 | -2.65 |
| CN(CCc1ccccc1)Cc1cnc(C2(C)CCCCO2)nc1 (centres undefined) | 1.38 |
| COCCC(=O)N1C[C@@H](O)[C@H](N2CCN(c3ccccc3)CC2)C1 | -2.33 |
| Cc1n[nH]c(C)c1CC(=O)N1CC[C@@](C)(O)[C@H](Oc2ccccc2)C1 | -6.16 |
| Nc1ncnc2nc(C3CCN(C(=O)Cc4ccccc4)C3)ccc12 (centres undefined) | 13.4 |
| COC(=O)c1cccc(C2CNCCN2C)c1 (centres undefined) | 12 |
| Cc1nc(-c2c(C)noc2C)cc(C2CCN(S(=O)(=O)N(C)C)CC2)n1 | -8.98 |
| CN1CCCC1c1nnc2n1CCN(S(=O)(=O)c1ccccc1Cl)CC2 (centres undefined) | -8.1 |
| CC(=O)Nc1ccc(CN2CCCC(c3cc4ncccc4[nH]3)C2)cc1 (centres undefined) | -5.47 |
| CNc1cncc(C2CCCN2C(=O)Cn2ccnc2C)n1 (centres undefined) | -5.3 |

| SMILES | cytotoxicity at 70.5 h [%] |
| --- | --- |
| N[C@@H]1CCCN(C(=O)Cc2c[nH]c3ccccc23)[C@H]1c1ccccc1F | 23.2 |
| Cc1cc(-c2cnc(N(C)C)nc2C2CCCCN2C(=O)C2CC2)on1 (centres undefined) | -3.37 |
| O=S(=O)(c1cccc(F)c1)N1CCCCC1c1ccn[nH]1 (centres undefined) | -7.34 |
| Cc1nc(-c2cccc(C(=O)O)c2)cc(C2CCCN(C(C)C)C2)n1 (centres undefined) | 13.2 |
| COc1ccccc1CN1CC[C@H]2[C@@H](C1)[C@H](c1ccsc1)CN2C(C)=O | 18.4 |
| Cn1cc(C(=O)N2CCCC(CN3CCCC3=O)C2)cn1 (centres undefined) | -7.83 |
| O=C(NC[C@]1(O)CN(Cc2ccccc2F)C[C@H]1O)c1cscn1 | -8.78 |
| Cc1nccn1CC1CCCN(C(=O)c2cnn(C)c2)C1 (centres undefined) | -12.8 |
| O=C(O)c1ccccc1-c1ccc(CN2CC(O)C2)cc1 | -11.6 |
| COc1cccc(-c2noc(C3CCN(CC(N)=O)C3)n2)c1 (centres undefined) | -4.11 |
| Cc1csc(Nc2cc(C3CCCCN3C)nc(C)n2)n1 (centres undefined) | 0.668 |
| c1ccc(CN2CCCC(c3nccnc3-n3ccnc3)C2)cc1 (centres undefined) | -17.5 |
| O=C(CO)N1CCC(c2cncc(-c3cccc(Cl)c3)n2)CC1 | -3.18 |
| CN(C)c1ncc(CN2CCOC(C(=O)Nc3ccccc3)C2)cn1 (centres undefined) | -6.09 |
| Nc1nc(C2CCN(C(=O)c3cscn3)CC2)cs1 | -18.4 |
| Cc1nnc(Nc2cccc(C3CCN(CCO)CC3)n2)s1 | -13.5 |
| O=C(c1ccncc1)N1CCC(c2nc(O)cc(-c3cccnc3)n2)C1 (centres undefined) | -17.2 |
| CNc1nc(C)c(C(=O)N2CCCCC2CN2CCCCCC2)s1 (centres undefined) | -17.9 |
| Cc1ccc(-c2nnc(SCC(=O)O)n2-c2ccc(C)cc2)cc1 | -15.4 |
| CC(C)N1CCC(Cc2cncc(-c3ccccc3C(=O)O)n2)CC1 | -17.6 |
| CC1(C(=O)N2CCOCC2)CN(Cc2ccccc2F)CCO1 (centres undefined) | -11.3 |
| COCC(=O)N1CCCC1c1cc(Nc2nnc(C)s2)nc(C)n1 (centres undefined) | 21.4 |
| Cc1noc(C)c1-c1cncc(C2CCCN2Cc2cncnc2)n1 (centres undefined) | -20.4 |

| SMILES | cytotoxicity at 70.5 h [%] |
| --- | --- |
| Cc1nonc1C(=O)N1CCCC(c2ncncc2-c2ccncc2)C1 (centres undefined) | -28.8 |
| Cc1cc(-c2cnc(NC3CC3)nc2-c2ccc(C)o2)on1 | -9.8 |
| Cc1cc(-c2cnc(N3CCNC(=O)C3)nc2-c2ccc(C)o2)on1 | -16.3 |
| c1cnc(-c2cnc(N3CCSCC3)nc2C2CC2)cn1 | -15.9 |
| Cn1cc(CN2CCc3c(nc(-c4ccccn4)[nH]c3=O)C2)cn1 | -23.4 |
| CC(=O)N1CCC(Cc2cnc(-c3c(C)nn(C)c3C)cn2)C1 (centres undefined) | -25.8 |
| Cc1nc(C2CCCCN2C(=O)c2ccccc2)ncc1C(=O)N(C)C (centres undefined) | -12 |
| Cc1cccc(Nc2nccnc2C2CCCN2CC(=O)N(C)C)n1 (centres undefined) | 18.8 |
| CN1CCCCC1c1ncc2c(n1)CCN(Cc1ccccc1Cl)C2 (centres undefined) | -7.2 |
| COc1ccc(CN2CCc3nc(C4CCCCN4C)ncc3C2)cc1 (centres undefined) | -10.4 |
| NC(=O)C1(Cc2ccccc2-c2ccccc2)CCCN(CC2CC2)C1 (centres undefined) | -14.5 |
| CC(C)S(=O)(=O)N1CCC(c2cc3n(n2)[C@@H](C(F)(F)F)C[C@@H](C)N3)C1 (some centres undefined) | -11 |
| O=C(NCC1CC1)Nc1cnc2cc(Cl)ccc2c1O | -1.93 |
| COc1ccc2c(O)c(NC(=O)NCC3CC3)cnc2c1 | 9.51 |
| CC1CCCN(Cc2c(C3CCOCC3)[nH]c3ncccc23)C1 (centres undefined) | 26.7 |
| O=C(c1ccncc1)N1Cc2ccccc2OC2(CCOCC2)C1 | -18.2 |
| O=C(O)C1(Cc2cc(-c3ccc(F)cc3F)no2)CCOCC1 | 20.5 |
| Cc1cc2c(=O)n3c(nc2s1)CCN(C(=O)c1scnc1C)CC3 | -12.5 |
| Cc1cc(-c2cnc(NC3CCCC3)nc2-c2ccoc2C)on1 | -8.8 |
| CCN(CC)CCNc1ncc(-c2cc(C)no2)c(-c2ccoc2C)n1 | -10.5 |
| Cc1ccc(-c2cc(N)c(=O)n(CC(=O)NCC3CC3)n2)s1 | -23.3 |
| CNC(=O)CCc1cc(C)nc(C2CCCN2)c1 (centres undefined) | -13.7 |
| COCCN1CCC(Cc2cncc(-c3ccc(C(=O)O)cc3)n2)C1 (centres undefined) | -11.8 |

| SMILES | cytotoxicity at 70.5 h [%] |
| --- | --- |
| NCc1cnn(-c2ccccc2C(=O)NCc2ccncc2)c1 | -8.5 |
| Cc1ncc(CNC(=O)Cc2ccc(Cl)cc2)c(C2CCCN2C)n1 (centres undefined) | -16.7 |
| CCCn1ncc(CN2C[C@@H]3CCCN3C[C@@H]2CCSC)c1C | 8.56 |
| CN(C)C(=O)C1(CCCc2ccncc2)CCCN1 (centres undefined) | 9.48 |
| Nc1cc(N2CCCC2c2cnccn2)ncn1 (centres undefined) | -7.75 |
| NC(=O)C1CN(Cc2c[nH]cn2)CCN(C2CCOCC2)C1 (centres undefined) | -9.19 |
| c1cc2nccc(CC3CCCN(Cc4ncc[nH]4)CC3)c2cn1 (centres undefined) | -7.89 |
| COCC(=O)N1CCC(c2noc3nc(C)cc(C(F)(F)F)c23)CC1 | 24.6 |
| CC(=O)N1CCN(c2cc(C3CN(C)CCO3)nc(C)n2)CC1 (centres undefined) | -11.6 |
| CN(Cc1nc(C(F)(F)F)cs1)C(=O)CCc1ccccn1 | -1.82 |
| CC(=O)N1CC(C)CN(C(=O)c2cscn2)c2ccccc21 (centres undefined) | 2.08 |
| CC(=O)N1CC(C)CN(C(=O)c2cccnc2C)c2ccccc21 (centres undefined) | -7.8 |
| Cc1cccc(Oc2ccccc2CNC(=O)C2CCC(=O)NC2)c1 (centres undefined) | -10.6 |
| O=C1CCN(C(=O)NCCc2c[nH]c3ccc(Cl)cc23)CCN1 | -8.44 |
| COC(=O)c1cc(CN2CCC(c3noc(C)n3)CC2)c(C)s1 | 2.05 |
| Cc1cccc(Oc2ccccc2CNC(=O)C2CCNC(=O)C2)c1 (centres undefined) | -6.18 |
| COC(=O)c1ccc(CN2CCC(c3noc(C)n3)CC2)s1 | -8.54 |
| Cc1ccc(CNC(=O)C2CCNC(=O)C2)c(OCCC(C)C)c1 (centres undefined) | 0.635 |
| COC(=O)c1ccc(CN2CCN(Cc3nc(C)no3)CC2)s1 | -7.55 |
| O=C(c1cc(F)cc(F)c1)N1CCC(O)(C(F)(F)F)CC1 | 19.9 |
| COCCC(=O)N(C)Cc1nc(C(F)(F)F)cs1 | -1.8 |
| CCSCc1ccc(C(=O)N2CCCN(CC)CC2)cc1 | -10.3 |
| CCOc1ccc(SCCNS(=O)(=O)CC)cc1 | -11.3 |

| SMILES | cytotoxicity at 70.5 h [%] |
| --- | --- |
| CN(CCOc1cccc(S(C)(=O)=O)c1)CC(F)F | -10.4 |
| CN(CCOc1cccc(S(C)(=O)=O)c1)c1ccccc1 | -2.26 |
| COCCCN1CCN(CC2CCCO2)CC1 (centres undefined) | 22.5 |
| Cn1cnc(S(=O)(=O)N2CCCc3c(F)cc(F)cc32)c1Cl | 22.3 |
| Cc1cc(F)c2c(c1)CCCN2S(=O)(=O)c1ncn(C)c1Cl | -0.387 |
| Cc1nc(C)c(C(C)NCc2c(C)nn(C)c2N(C)C)s1 (centres undefined) | -6.29 |
| COCCCN1Cc2cccc(NC(=O)c3cc(F)cc(F)c3)c2C1 | 4.56 |
| COCCCN1Cc2cccc(NC(=O)c3cc(F)ccc3F)c2C1 | -9.4 |
| N#CC1(NC(=O)c2cc(Cl)c3c(c2)OCCCO3)CCC1 | -4.84 |
| Cn1cc(-c2ncc(C(=O)NCCCn3ccccc3=O)s2)cn1 | -10.1 |
| Cc1cc(NC(=O)NCc2nncn2C)ccc1OC(C)C | 22.5 |
| CN(Cc1nc(N2CCCC2)ncc1-c1ccncc1)C(=O)C(C)(C)C | -2.37 |
| CC1(C(=O)N2CCOCC2)CNCCO1 (centres undefined) | -7.18 |
| CNCC(=O)N1CCCC(c2nccnc2Oc2cccc(F)c2)C1 (centres undefined) | -10.3 |
| O=C(CCC1CCCC1)NCCn1nc(C2CCNC2)c2cccnc21 (centres undefined) | -14.1 |
| Cc1ccc2c(c1)CN(C(=O)C1CCCCC1)C(CN(C)C)CO2 (centres undefined) | 0.565 |
| Cc1cc2c(=O)n3c(nc2s1)CCN(Cc1cnn(C)c1C)CC3 | -11.8 |
| Cc1cc(-c2cnc(N3CCCC(C)C3)nc2-c2cccnc2C)on1 (centres undefined) | 23.3 |
| COc1ccc(OCCc2sc(C3(O)CCCNCC3)nc2C)cc1 (centres undefined) | 2.2 |
| Cc1ccc(CN(CCCn2ccnc2)Cc2c[nH]cn2)s1 | -0.992 |
| COc1ccc(CN(Cc2cncn2C)CC2CCCO2)cc1OC (centres undefined) | -10.3 |
| Cc1cc(C[C@@H]2COC[C@H]2NCc2ccc(Br)s2)on1 | 22.3 |
